Assay [1] addresses T1, Sarcoplasmic Reticular Ca^++ -Release Channel (ryanodine receptor) (Oryctolagus cuniculus, UniProt P11716).
T1 construct: skeletal sarcoplasmic reticulum membrane vesicles; from tissue; host or cells: skeletal muscle sarcoplasmic reticulum membrane vesicles
Particulars: Table II; footnote * J. MED. CHEM. 30 710 (1987); cited from earlier work.

For assay [2], the target named is T2, ryanodine receptor (skeletal sarcoplasmic reticulum membrane vesicles) (Oryctolagus cuniculus, UniProt P11716).
T2 construct: skeletal sarcoplasmic reticulum membrane vesicles; from tissue; host or cells: skeletal muscle sarcoplasmic reticulum membrane vesicles
Kind of assay: biochemical. Conditions: for IC50: read-out: IC50; for Kd: read-out: KD. It counts as binding.

For assay [3], the target named is SR Ca^2+ release channel (junctional SR vesicles from rabbit skeletal muscle) (Oryctolagus cuniculus, UniProt P11716). Kind of assay: biochemical. The class given is biochemical. As to the method:
Briefly, junctional SR vesicles from rabbit skeletal muscle were passively loaded with. ^45 Ca^2+ in the presence and absence of the esters. Ca^2+ -efflux was then initiated by diluting the vesicles 100-fold into a low Ca^2+ -concentration. ^45 Ca^2+ remaining in the vesicles was determined after a 3 sec. efflux period by termination and filtration of the vesicles followed by liquid scintillation counting.

For assay [4], the system named is SR Ca^++ release channel/ryanodine receptor (cardiac and skeletal muscle vesicles). The class given is biochemical.
Assay [5] deals with mammalian skeletal muscle. Particulars: cited from earlier work.
For the next assay, the system named is mammalian cardiac muscle. Particulars: cited from earlier work.
The test system of assay [6] is skeletal muscle sarcoplasmic reticulum (SR). Particulars: cited from earlier work.
Assay [7] deals with T1, Sarcoplasmic Reticular Ca^++ -Release Channel (ryanodine receptor). Briefly: biochemical. The class given is binding. Conditions: vs ryanodine.
[8] abbreviates: 45Ca2+ efflux, skeletal SR vesicles.

Several values for one entry are separate records, joined by “and”; a condition that tells them apart may be missing. Equal values may be shown once. Entries after “also recorded” stand apart in the source; their conditions may differ. Read-outs that look alike come from different tables or passages of the source.

T2 sequence (P11716 whole entry): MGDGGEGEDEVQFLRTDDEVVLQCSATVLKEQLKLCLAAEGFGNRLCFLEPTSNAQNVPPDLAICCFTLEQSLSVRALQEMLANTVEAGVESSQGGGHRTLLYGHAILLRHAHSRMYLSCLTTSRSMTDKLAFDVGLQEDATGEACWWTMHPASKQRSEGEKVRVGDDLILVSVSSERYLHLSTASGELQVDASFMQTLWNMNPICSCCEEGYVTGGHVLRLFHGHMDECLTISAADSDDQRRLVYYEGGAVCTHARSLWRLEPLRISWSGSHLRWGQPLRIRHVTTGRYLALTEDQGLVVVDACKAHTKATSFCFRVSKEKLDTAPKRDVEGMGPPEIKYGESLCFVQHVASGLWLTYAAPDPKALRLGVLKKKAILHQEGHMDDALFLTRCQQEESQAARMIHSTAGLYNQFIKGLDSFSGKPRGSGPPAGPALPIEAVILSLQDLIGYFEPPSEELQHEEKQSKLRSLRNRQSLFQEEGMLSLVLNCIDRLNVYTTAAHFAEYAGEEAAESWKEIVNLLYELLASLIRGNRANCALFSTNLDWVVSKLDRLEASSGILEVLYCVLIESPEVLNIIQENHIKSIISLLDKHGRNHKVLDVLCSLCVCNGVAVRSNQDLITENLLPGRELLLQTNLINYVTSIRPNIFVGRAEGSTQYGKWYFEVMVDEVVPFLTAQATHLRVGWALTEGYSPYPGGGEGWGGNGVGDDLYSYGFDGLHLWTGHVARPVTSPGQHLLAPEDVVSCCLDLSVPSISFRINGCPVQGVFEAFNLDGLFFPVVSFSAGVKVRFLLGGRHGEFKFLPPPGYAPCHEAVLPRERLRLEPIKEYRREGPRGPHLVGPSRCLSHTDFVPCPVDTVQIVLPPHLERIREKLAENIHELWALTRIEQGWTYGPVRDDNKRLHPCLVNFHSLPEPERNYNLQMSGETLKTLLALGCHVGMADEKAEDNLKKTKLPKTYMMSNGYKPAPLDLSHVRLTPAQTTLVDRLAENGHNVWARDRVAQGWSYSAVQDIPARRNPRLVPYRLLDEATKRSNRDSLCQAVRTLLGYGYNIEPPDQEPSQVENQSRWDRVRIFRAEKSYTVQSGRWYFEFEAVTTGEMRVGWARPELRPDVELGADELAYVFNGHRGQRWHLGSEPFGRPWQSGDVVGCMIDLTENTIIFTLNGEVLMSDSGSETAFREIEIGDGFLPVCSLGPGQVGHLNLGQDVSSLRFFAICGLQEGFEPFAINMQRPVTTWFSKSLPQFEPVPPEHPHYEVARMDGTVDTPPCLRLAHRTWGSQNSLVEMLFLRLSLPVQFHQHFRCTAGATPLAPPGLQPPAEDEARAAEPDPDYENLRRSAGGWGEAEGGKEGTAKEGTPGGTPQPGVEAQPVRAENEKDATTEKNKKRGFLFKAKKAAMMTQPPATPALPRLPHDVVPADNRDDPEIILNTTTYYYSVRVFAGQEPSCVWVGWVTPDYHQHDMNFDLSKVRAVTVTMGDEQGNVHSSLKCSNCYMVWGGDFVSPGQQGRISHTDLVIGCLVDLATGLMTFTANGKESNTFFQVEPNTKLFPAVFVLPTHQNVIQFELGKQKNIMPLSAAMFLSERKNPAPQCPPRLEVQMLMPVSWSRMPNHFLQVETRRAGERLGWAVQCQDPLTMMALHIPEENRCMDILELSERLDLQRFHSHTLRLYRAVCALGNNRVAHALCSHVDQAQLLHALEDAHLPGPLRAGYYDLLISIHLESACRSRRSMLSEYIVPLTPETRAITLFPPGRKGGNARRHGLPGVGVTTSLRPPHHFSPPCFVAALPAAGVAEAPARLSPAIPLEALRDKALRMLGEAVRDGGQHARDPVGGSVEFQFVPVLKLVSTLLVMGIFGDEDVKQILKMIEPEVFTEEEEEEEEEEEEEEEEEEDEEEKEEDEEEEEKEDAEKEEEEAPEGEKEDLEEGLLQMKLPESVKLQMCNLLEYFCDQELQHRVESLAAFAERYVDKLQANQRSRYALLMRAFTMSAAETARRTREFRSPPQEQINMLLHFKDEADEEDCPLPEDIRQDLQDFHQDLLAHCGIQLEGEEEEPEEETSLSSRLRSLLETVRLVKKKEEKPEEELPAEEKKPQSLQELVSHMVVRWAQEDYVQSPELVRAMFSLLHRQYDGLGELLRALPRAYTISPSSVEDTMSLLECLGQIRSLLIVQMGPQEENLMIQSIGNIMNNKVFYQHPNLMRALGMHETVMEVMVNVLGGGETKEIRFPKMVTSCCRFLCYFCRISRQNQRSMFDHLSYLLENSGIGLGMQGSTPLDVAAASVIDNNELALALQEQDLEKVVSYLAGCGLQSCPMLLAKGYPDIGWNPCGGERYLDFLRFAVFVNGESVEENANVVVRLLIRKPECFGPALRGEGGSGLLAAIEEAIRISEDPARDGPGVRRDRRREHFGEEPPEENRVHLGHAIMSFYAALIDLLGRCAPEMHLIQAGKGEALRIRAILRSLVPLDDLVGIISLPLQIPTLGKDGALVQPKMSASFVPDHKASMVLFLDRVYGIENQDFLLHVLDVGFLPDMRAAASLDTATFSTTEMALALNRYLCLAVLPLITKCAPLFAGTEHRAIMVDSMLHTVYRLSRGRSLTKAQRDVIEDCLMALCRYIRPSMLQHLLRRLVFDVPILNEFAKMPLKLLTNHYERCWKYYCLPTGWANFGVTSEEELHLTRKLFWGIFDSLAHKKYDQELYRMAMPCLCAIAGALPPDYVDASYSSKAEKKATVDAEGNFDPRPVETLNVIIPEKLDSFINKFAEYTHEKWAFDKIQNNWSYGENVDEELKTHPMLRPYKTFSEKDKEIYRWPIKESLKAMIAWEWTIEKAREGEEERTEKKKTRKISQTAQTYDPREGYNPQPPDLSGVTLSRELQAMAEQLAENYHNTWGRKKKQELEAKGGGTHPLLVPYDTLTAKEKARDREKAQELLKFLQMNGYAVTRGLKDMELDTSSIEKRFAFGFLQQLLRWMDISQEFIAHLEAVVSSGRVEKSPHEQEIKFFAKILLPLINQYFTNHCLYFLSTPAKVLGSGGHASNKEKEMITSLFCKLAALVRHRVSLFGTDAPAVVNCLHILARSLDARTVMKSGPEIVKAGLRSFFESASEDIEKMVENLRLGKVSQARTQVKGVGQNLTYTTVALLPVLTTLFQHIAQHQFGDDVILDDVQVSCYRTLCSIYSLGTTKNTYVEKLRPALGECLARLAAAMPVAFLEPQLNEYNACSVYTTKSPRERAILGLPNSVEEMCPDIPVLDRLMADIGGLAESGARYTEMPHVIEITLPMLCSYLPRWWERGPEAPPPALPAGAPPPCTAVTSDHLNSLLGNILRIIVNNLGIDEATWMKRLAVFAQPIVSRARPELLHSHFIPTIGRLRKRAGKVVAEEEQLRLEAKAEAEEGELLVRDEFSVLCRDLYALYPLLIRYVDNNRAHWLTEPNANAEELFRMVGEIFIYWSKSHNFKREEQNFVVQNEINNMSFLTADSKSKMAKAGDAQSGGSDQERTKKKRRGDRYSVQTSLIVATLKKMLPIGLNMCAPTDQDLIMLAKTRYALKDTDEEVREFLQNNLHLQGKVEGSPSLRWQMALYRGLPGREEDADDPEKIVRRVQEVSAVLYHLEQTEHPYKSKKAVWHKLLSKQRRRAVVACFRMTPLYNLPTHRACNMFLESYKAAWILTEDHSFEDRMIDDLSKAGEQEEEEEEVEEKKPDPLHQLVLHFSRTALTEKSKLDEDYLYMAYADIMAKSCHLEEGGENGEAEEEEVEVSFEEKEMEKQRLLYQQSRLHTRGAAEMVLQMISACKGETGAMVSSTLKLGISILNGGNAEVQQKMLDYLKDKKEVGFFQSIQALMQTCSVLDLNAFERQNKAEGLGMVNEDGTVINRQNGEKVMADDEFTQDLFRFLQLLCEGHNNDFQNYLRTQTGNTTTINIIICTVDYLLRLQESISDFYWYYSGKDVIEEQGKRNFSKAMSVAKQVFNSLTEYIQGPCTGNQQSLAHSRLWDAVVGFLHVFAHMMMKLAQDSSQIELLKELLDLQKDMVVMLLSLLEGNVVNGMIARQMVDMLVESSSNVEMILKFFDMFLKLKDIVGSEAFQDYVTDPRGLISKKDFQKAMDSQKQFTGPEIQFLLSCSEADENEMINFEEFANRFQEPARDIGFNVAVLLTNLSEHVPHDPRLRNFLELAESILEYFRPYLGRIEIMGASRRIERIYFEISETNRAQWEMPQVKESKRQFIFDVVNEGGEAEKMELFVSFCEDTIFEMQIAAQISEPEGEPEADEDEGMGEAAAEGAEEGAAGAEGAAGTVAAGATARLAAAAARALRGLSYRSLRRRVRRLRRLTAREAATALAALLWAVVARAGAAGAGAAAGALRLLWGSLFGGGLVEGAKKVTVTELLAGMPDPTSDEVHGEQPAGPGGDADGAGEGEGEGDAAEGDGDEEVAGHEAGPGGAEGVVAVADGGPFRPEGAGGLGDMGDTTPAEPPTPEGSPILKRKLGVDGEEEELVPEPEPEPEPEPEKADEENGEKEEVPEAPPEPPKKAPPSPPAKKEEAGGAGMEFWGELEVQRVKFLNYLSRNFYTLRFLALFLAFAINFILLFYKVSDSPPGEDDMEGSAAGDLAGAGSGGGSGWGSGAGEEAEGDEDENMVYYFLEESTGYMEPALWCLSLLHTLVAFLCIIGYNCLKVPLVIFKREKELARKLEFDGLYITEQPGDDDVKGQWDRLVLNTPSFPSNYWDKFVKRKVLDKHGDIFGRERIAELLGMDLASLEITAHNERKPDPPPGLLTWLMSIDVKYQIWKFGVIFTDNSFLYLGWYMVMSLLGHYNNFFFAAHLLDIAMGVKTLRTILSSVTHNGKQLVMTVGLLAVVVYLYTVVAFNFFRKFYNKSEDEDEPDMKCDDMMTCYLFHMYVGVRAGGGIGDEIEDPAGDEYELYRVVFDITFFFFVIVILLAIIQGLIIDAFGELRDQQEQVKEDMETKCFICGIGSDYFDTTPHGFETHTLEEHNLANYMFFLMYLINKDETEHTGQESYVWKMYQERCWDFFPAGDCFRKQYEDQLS
Chain of SR Ca^2+ release channel (junctional SR vesicles from rabbit skeletal muscle) (P11716 whole entry): as above
T1 sequence (P11716 whole entry): as above

Regarding `CC1=C(C(C)C)[C@@H](OC(=O)c2ccc[nH]2)[C@@]2(O)[C@@]3(C)CC(=O)O[C@@]4([C@H](O)[C@@H](C)CC[C@]34O)[C@@]12O` [Anhydro-Ryanodine, reference compound], in assay [1], the IC50 was > 1000 nM. In assay [2] (first embodiment), the IC50 was > 1000 nM and the Kd was > 350 nM.

Take `CC1CCC2(O)C3(C)CC4(O)OC2(C1O)C1(O)C3(O)C(OC(=O)c2ccc[nH]2)C(O)(C(C)C)C41C` (stereo not shown) [Ryanodine, ryanodine]: the “opening (activation) of the SR CRC (in words)” value in assay [3] is reported as “activates the SR CRC at low μM concentrations; also recorded: induces full opening of the SR CRC”. Further, in assay [3] (setting [8]), the “concentration inducing deactivation of the channel” value was “higher than 30 μM” and the “concentration of maximal channel activation” value is on record as “about 30 μM”. Moreover, in assay [4] (I, NMDS: concentrations as high as 300 μM, ryanodine, dehydroryanodine: >μM), the “closing of the SR Ca^++ release channel (in words)” value is “closes or inactivates the SR Ca^++ release channels; also recorded: inhibits Ca^++ flux by inactivating or closing the channel; also recorded: the channel is closed”. Besides, in assay [4] (ryanodine, dehydroryanodine: low concentrations (<μM)), the “opening of the SR Ca^++ release channel (in words)” value is on record as “opens the SR Ca^++ release channel/ryanodine receptor”. Further, the “opening of the SR Ca^++ release channel (in words)” value in assay [4] (ryanodine, dehydroryanodine: low concentrations (<μM), listed as ryanodine) is “enhances Ca^++ flux across the SR membrane by opening the SR Ca^++ release channel; also recorded: the Ca^++ release channel is opened”. The “effect on mammalian skeletal muscle (in words)” value in assay [5] was “irreversible contracture”. Moreover, the “effect on mammalian cardiac muscle (in words)” value in the assay on mammalian cardiac muscle is on record as “negative inotropic effect”. Besides, the “effect on active uptake of Ca^++ by skeletal muscle SR (in words)” value in assay [6] is given as “obstruct active uptake”.

Regarding `CC1CCC2(O)C3(C)CC4(O)OC2(C1OC(=O)CCN)C1(O)C3(O)C(OC(=O)c2ccc[nH]2)C(O)(C(C)C)C41C` (stereo not drawn) [V-II, O10eq -β-Alanyl-Ryanodine], the “opening (activation) of the SR CRC (in words)” value in assay [3] is recorded as “induces full opening of the SR CRC”. For the same compound, in assay [3] (3 s, 45Ca2+ efflux, skeletal SR vesicles, read-out: concentration of maximal channel activation), the EC (maximal activation) was 10 µM. For the same compound, the “closing (deactivation) of the SR CRC (in words)” value in assay [3] (higher concentrations, up to 1 mM for V-II, XXI preliminary) was “none of the closing action seen with high concentrations of ryanodine”. For the same compound, in assay [3] (towards lower concentrations), the “shift of activation curve relative to ryanodine” value is “three-fold”. Also, the “pharmacological profile (in words)” value in assay [3] (vs biphasic profile of ryanodine) was “altered--unidirectional--pharmacological profile, differing from the biphasic profile of ryanodine”. For the same compound, the “relative binding affinity compared with ryanodine (in words)” value in assay [7] is given as “two to three-fold greater RBA”. The “opening of the SR Ca^++ release channel (in words)” value in assay [4] is listed as “exhibits only the ability to enhance Ca^++ flux by opening the SR Ca^++ channel”. Also, the “binding affinity for the ryanodine receptor (in words)” value in assay [2] is listed as “approximately four-fold higher affinity”. The Kd in assay [2] (Table I, mean ± standard deviation of replicates) amounted to 1 ± 0.3 nM; in assay [2] (first embodiment), 1 nM. The IC50 in assay [2] (V-II from direct preparation by hydrogenolysis of IV in presence of triethylamine) worked out at 4.3 nM; in assay [2] (first embodiment), 2.8 ± 0.8 nM. For the same compound, the “binding affinity to the ryanodine receptor relative to ryanodine (times stronger/greater)” value in assay [2] (vs ryanodine) is 3.5-4 times and 4 times.

The values are drawn from patent US5679701A (priority 1996, dated 1997).
